These molecules were tested against T1, TEM-1 β-lactamase (Escherichia coli, UniProt P62593) (assay: TEM-1 β-lactamase inhibition assay (nitrocefin hydrolysis, 486 nm)). Details: Ki, 25° C., 50 mM sodium phosphate, 5% DMSO, pH 7.0; enzyme 5 nM, nitrocefin 167 μM.
T1 sequence (P62593 24-286 limits assumed): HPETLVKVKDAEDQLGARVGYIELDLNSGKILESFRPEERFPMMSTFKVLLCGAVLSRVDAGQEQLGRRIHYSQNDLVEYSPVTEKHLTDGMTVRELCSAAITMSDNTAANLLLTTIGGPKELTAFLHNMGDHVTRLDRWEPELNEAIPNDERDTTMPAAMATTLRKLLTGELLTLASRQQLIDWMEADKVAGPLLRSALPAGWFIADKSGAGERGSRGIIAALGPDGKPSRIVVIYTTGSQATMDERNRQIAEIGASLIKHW
Type: biochemical
Procedure: The inhibition of TEM-1 β-lactamase was determined spectrophotometrically. B-lactamase activity was followed by measuring the hydrolysis of nitrocefin, [3-(2,4-dinitrostyryl)-(6R, 7R)-7-(2-thienylacetamido)-ceph-3-em-4-carboxylic acid, E-isomer], (Calbiochem, San Diego, Calif., USA) at 486 nm. Inhibition assays were performed at 25° C. in 50 mM sodium phosphate, 5% DMSO, pH 7.0. […] Inhibitor was added to the enzyme and incubated for ten minutes before the addition of substrate. Inhibition constants (Ki) for the inhibitors are obtained at the desired temperature and solvent conditions by measuring the rate of substrate hydrolysis at increasing amounts of inhibitors.
(§1) The competitive inhibition of β-lactamase was determined spectrophotometrically using a Varian (Walnut Creek, Calif.) Cary 100 UV-Visible spectrophotometer. β-lactamase activity was followed by measuring the hydrolysis of nitrocefin, [3-(2,4-dinitrostyryl)-(6R, 7R)-7-(2-thienylacetamido)-ceph-3-em-4-carboxylic acid, E-isomer], (Calbiochem, San Diego, Calif.) at 486 nm. Inhibition assays were performed at 25° C. in 50 mM sodium phosphate, 5% DMSO, pH 7.0. […] Penicillin G (Sigma, St. Louis, Mo.) was also used as a substrate to determine KM and kcat.
(§2) Inhibitor was added to protein and incubated for ten minutes before the addition of substrate. Inhibition constants were determined by measuring the loss of P-lactamase activity with increasing inhibitor concentrations and fitting the data to standard equations for competitive inhibition.
(§3) These methods can also be used to express and assay recombinant TEM-1 variant of β-lactamase.
O=C(Oc1cccc(B(O)O)c1)c1cc(B(O)O)cc([N+](=O)[O-])c1 [Compound (1v), 3-(3-Boronophenoxycarbonyl)-5-nitrophenylboronic acid] gave a Ki of 32 ± 1.1 µM.
O=C(Oc1c(Cl)cc(Cl)cc1[N+](=O)[O-])c1cc(B(O)O)cc([N+](=O)[O-])c1 [Compound (1w), 3-(2,4-Dichloro-6-nitro-phenoxycarbonyl)-5-nitro-phenylboronic acid] was tested, and the Ki was 13 ± 1.1 µM.
O=C(Oc1ccc(OC(=O)c2cc(B(O)O)cc([N+](=O)[O-])c2)cc1)c1cc(B(O)O)cc([N+](=O)[O-])c1 [Compound (2a), 3-Borono-5-nitrobenzoic acid 1,4-phenylene ester] gave a Ki of 22.7 ± 1.3 µM.
Work on O=C(O)c1cc(NC(=O)c2ccccc2F)cc(B(O)O)c1 [Compound (4a), 3-(2-Fluorobenzamido)-5-carboxylphenylboronic acid] yielded a Ki of 143 ± 9 µM.
Nc1cc(B(O)O)cc(C(=O)O)c1 [Compound (5a), 3–5-carboxylphenylboronic acid] showed a Ki of 727 ± 49 µM.
Work on O=C(Oc1cccc(OC(=O)c2cc(B(O)O)cc([N+](=O)[O-])c2)c1)c1cc(B(O)O)cc([N+](=O)[O-])c1 [Compound (9a), 3-Borono-5-nitrobenzoic acid 1,3-phenylene ester] yielded a Ki of 16 ± 1.5 µM.
For CCCCOC(=O)c1cccc(B(O)O)c1 [Compound BB-1003], the Ki was 231 µM.
CC(C)(C)OC(=O)Oc1cccc(B(O)O)c1 [Compound BB-1004] was tested, and the Ki was 297 µM.
Work on O=C(c1cccc(B(O)O)c1)N1CCCC1 [Compound BB-1005] yielded a Ki of 392 µM.
For O=C(OCc1ccccc1)c1ccc(B(O)O)cc1 [Compound F1002], the Ki was 148 µM.
OB(O)c1cccc2c1Sc1ccccc1S2 [Compound F1012] was tested, and the Ki was 113 µM.

Same assay, conditions: Ki, TEM-1 β-lactamase
O=C(Oc1c(Cl)cc(Cl)cc1[N+](=O)[O-])c1cc(B(O)O)cc([N+](=O)[O-])c1 [Compound (1w), 3-(2,4-Dichloro-6-nitro-phenoxycarbonyl)-5-nitro-phenylboronic acid] gave a Ki of 12.7 µM.
O=C(Oc1c(Cl)cc(Cl)cc1Cl)c1cc(B(O)O)cc([N+](=O)[O-])c1 [Compound (1y), 3-(2,4,6-Trichlorophenoxycarbonyl)-5-nitro-phenylboronic acid] gave a Ki of 15.8 µM.
Molecule O=C(Oc1ccc(OC(=O)c2cc(B(O)O)cc([N+](=O)[O-])c2)cc1)c1cc(B(O)O)cc([N+](=O)[O-])c1 [Compound (2a), 3-Borono-5-nitrobenzoic acid 1,4-phenylene ester] has a Ki of 22.7 µM.
In the case of O=C(OCc1cccc2ccccc12)c1cc(B(O)O)cc([N+](=O)[O-])c1 [Compound (3e), 3-(1-Naphthalenemethoxycarbonyl)-5-nitrophenylboronic acid], the Ki is reported as 17.1 µM.
Work on O=C(Oc1cccc(OC(=O)c2cc(B(O)O)cc([N+](=O)[O-])c2)c1)c1cc(B(O)O)cc([N+](=O)[O-])c1 [Compound (9a), 3-Borono-5-nitrobenzoic acid 1,3-phenylene ester] yielded a Ki of 16.2 µM.

What follows are molecules tested against T1, TEM-1 β-lactamase (assay: Isothermal titration calorimetry, binding to TEM-1 β-lactamase (Example 17)). Details: ITC.
Procedure: (§4) Isothermal titration calorimetry was performed on a high-precision VP-ITC titration calorimeter (Microcal Inc., Northampton, Mass.). β-Lactamase solutions were titrated with inhibitors in 50 mM sodium phosphate, 2% DMSO, pH 7.0, with β-lactamase concentrations ranging from 15 to 25 μM and inhibitor concentrations ranging from 300 to 1000 μM. The heat evolved from each injection was obtained by integrating the calorimetric signal. Heat of binding was obtained as the difference between the heat of reaction and the heat of inhibitor dilution. Data were analyzed using Origin 7.0 (OriginLab Corporation, Northampton, Mass.).
as §3
Also shown are the results obtained for β-lactamase variant TEM-1.
With O=C(Oc1c(Cl)cc(Cl)cc1[N+](=O)[O-])c1cc(B(O)O)cc([N+](=O)[O-])c1 [Compound (1w), 3-(2,4-Dichloro-6-nitro-phenoxycarbonyl)-5-nitro-phenylboronic acid] the ΔG was -6.409 kcal/mol, the ΔH was -4.554 kcal/mol and the “−TΔS” value was -1.855 kcal/mol.
In the case of O=C(Oc1c(Cl)cc(Cl)cc1Cl)c1cc(B(O)O)cc([N+](=O)[O-])c1 [Compound (1y), 3-(2,4,6-Trichlorophenoxycarbonyl)-5-nitro-phenylboronic acid], the ΔG is reported as -6.55 kcal/mol, the ΔH is reported as 0 kcal/mol and the “−TΔS” value is reported as -6.55 kcal/mol.
For O=C(Oc1ccc(OC(=O)c2cc(B(O)O)cc([N+](=O)[O-])c2)cc1)c1cc(B(O)O)cc([N+](=O)[O-])c1 [Compound (2a), 3-Borono-5-nitrobenzoic acid 1,4-phenylene ester], the ΔG was -7.451 kcal/mol, the ΔH was 0.274 kcal/mol and the “−TΔS” value was -7.725 kcal/mol.
O=C(OCc1cccc2ccccc12)c1cc(B(O)O)cc([N+](=O)[O-])c1 [Compound (3e), 3-(1-Naphthalenemethoxycarbonyl)-5-nitrophenylboronic acid] was tested, and the ΔG was -6.164 kcal/mol, the ΔH was 0.224 kcal/mol and the “−TΔS” value was -6.388 kcal/mol.
O=C(Oc1cccc(OC(=O)c2cc(B(O)O)cc([N+](=O)[O-])c2)c1)c1cc(B(O)O)cc([N+](=O)[O-])c1 [Compound (9a), 3-Borono-5-nitrobenzoic acid 1,3-phenylene ester] was tested, and the ΔG was -7.864 kcal/mol, the ΔH was 0.446 kcal/mol and the “−TΔS” value was -8.31 kcal/mol.

These molecules were tested against T2, AmpC β-lactamase (Escherichia coli, UniProt P00811) (assay: AmpC β-lactamase competitive inhibition assay (nitrocefin hydrolysis)). Details: not given.
T2 construct: made in house; host or cells: E. coli BL21 (DE3)
T2 sequence (P00811 20-377): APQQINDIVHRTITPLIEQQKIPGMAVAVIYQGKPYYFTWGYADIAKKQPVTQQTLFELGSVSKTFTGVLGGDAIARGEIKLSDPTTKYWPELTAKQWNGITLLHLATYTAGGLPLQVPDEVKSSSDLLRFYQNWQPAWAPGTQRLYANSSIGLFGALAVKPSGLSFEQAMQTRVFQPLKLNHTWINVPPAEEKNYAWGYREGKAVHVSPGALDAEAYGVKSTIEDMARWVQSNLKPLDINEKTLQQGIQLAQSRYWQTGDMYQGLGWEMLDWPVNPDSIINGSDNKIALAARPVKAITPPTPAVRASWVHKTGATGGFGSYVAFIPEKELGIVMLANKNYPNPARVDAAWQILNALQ
Type: biochemical
Procedure: The gene for AmpC β-lactamase (accession number P00811) was obtained from Escherichia coli K12 strain W3110 (American Type Culture Collection, Rockville Md.). E. coli was grown and plasmid (F-lacIq lacPL8 ampC::lambdacI+) was isolated via Qiagen (Valencia, Calif.) mini prep. The gene for AmpC was amplified in two pieces via polymerase chain reaction, ligated and purified by agarose gel electrophoresis. The ligated gene was inserted into a pET200 vector via a TOPO reaction (Invitrogen, Carlsbad, Calif.).
BL21 (DE3) (Invitrogen) cells were transformed by heat-shock with the prepared plasmid. These cells were grown to an OD600 of 0.8 at 37° C. Isopropylthiogalactoside (IPTG) was added to 1 mM, incubation temperature decreased to 25° C. and the cells were grown for an additional 18 hours. After 18 hours, the E. coli was pelleted by centrifugation, and discarded. The growth media was concentrated and dialyzed versus 100 mM Tris, pH 7.0. This solution was run through an equilibrated Q-resin column, and washed with excess 100 mM Tris, pH 7.0.
as §1, §2
With O=C(Oc1cccc(B(O)O)c1)c1cc(B(O)O)cc([N+](=O)[O-])c1 [Compound (1v), 3-(3-Boronophenoxycarbonyl)-5-nitrophenylboronic acid] the Ki was 5.01 µM.
For Nc1cc(B(O)O)cc(C(=O)OCc2cccc(B(O)O)c2)c1 [Compound (3f), 3-(3-Boronobenzyloxycarbonyl)-5-aminophenylboronic acid], the Ki was 0.724 µM.
O=C(OCc1cccc(B(O)O)c1)c1cc(O)cc(B(O)O)c1 [Compound (3g), 3-(3-Boronobenzyloxycarbonyl)-5-hydroxylphenylboronic acid] was tested, and the Ki was 2.69 µM.
O=C(Oc1cccc(B(O)O)c1)c1ccc(C(=O)Oc2cccc(B(O)O)c2)cc1 [Compound (11a), 1,4-Benzenedicarboxylic Acid, di 3-boronophenyl ester] gave a Ki of 1.31 µM.

What follows are molecules tested against T2, AmpC β-lactamase (assay: not given). Details: binding to AmpC; ITC.
Procedure: as §4
Isothermal titration calorimetry was undertaken to determine the thermodynamic characteristics of binding to AmpC β-lactamase.
For O=C(Oc1cccc(B(O)O)c1)c1cc(B(O)O)cc([N+](=O)[O-])c1 [Compound (1v), 3-(3-Boronophenoxycarbonyl)-5-nitrophenylboronic acid], the ΔG was -7.221 kcal/mol, the ΔH was -10.412 kcal/mol and the “−TΔS” value was 3.191 kcal/mol.
For Nc1cc(B(O)O)cc(C(=O)OCc2cccc(B(O)O)c2)c1 [Compound (3f), 3-(3-Boronobenzyloxycarbonyl)-5-aminophenylboronic acid], the ΔG was -8.151 kcal/mol, the ΔH was -9.325 kcal/mol and the “−TΔS” value was 1.174 kcal/mol.
For O=C(OCc1cccc(B(O)O)c1)c1cc(O)cc(B(O)O)c1 [Compound (3g), 3-(3-Boronobenzyloxycarbonyl)-5-hydroxylphenylboronic acid], the ΔG was -7.356 kcal/mol, the ΔH was -3.677 kcal/mol and the “−TΔS” value was -3.679 kcal/mol.
In the case of O=C(Oc1cccc(B(O)O)c1)c1ccc(C(=O)Oc2cccc(B(O)O)c2)cc1 [Compound (11a), 1,4-Benzenedicarboxylic Acid, di 3-boronophenyl ester], the ΔG is reported as -7.548 kcal/mol, the ΔH is reported as -3.114 kcal/mol and the “−TΔS” value is reported as -4.434 kcal/mol.

Reference: patent publication US7183267B2, “β-lactamase inhibitors and methods of use thereof” (priority 2003, dated 2007)
